From patent publication EP4752152A1, “STEROID COMPOUND, AND PREPARATION METHOD THEREFOR AND USE THEREOF” (Cholesgen (Shanghai) Co.Ltd., priority 2023, dated 2025)

What follows are compounds tested on SREBP pathway (assay: SREBP luciferase reporter gene system (SRE-luciferase assay)). Details: Homo sapiens, Huh-7, 16 h, Huh-7/SRE-luc cells, sterol-deficient medium, 0.01-10 µM.
Type: cell-based, human
Outline: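 Readout was SRE-driven luciferase normalised to GFP fluorescence in lysates of stably transfected Huh-7/SRE-luc hepatoma cells. Compounds (0.01, 0.03, 0.1, 0.3, 1.0, 3.0, 10 µM; DMSO control) were applied for 16 h in sterol-depleted medium with 2 µM lovastatin and 10 µM mevalonate; IC50 from variable-slope fit.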
In the case of `C[C@H](CCCC(O)c1cccc(OC(F)(F)F)c1)[C@H]1CC[C@H]2[C@H]3[C@H](CC[C@]12C)[C@@]1(C)CC[C@H](O)[C@H](O)[C@@H]1CC3(F)F` (single isomer, unassigned) [Compound 190, (1R,3aS,3bS,5aR,6R,7S,9aR,9bS,11aR)-4,4-difluoro-1-[(2R,6S)-6-hydroxy-6-{^3-[(trifluoromethyl)oxy]phenyl}hexan-2-yl]-9a,11a-dimethylhexadecahydro-1H-cyclopenta[1,2-a]phenanthrene-6,7-diol or (1R,3aS,3bS,5aR,6R,7S,9aR,9bS,11aR)-4,4-difluoro-1-[(2R,6R)-6-hydroxy-6-{3-[(trifluoromethyl)oxy]phenyl}hexan-2-yl]-9a,11a-dimethylhexadecahydro-1H-cyclopenta[1,2-a]phenanthrene-6,7-diol], the IC50 is reported as 0.355 µM. Work on `C[C@H](CCC1CC(=O)C1)[C@H]1CC[C@H]2[C@@H]3CC[C@H]4C[C@@H](O)CC[C@]4(C)[C@H]3CC[C@]12C` [Compound 129, 3-[(3R)-3-[(1R,3aS,3bR,5aS,7S,9aS,9bS,11aR)-7-hydroxy-9a,11a-dimethylhexadecahydro-1H-cyclopenta[1,2-a]phenanthren-1-yl]butyl]cyclobutan-1-one] yielded an IC50 of 0.32 µM. `C[C@H](CCCC(O)c1ccc(OC(F)(F)F)cc1F)[C@H]1CC[C@H]2[C@H]3[C@H](CC[C@]12C)[C@@]1(C)CC[C@H](O)[C@H](O)[C@@H]1CC3(F)F` (stereo partly drawn) [Compound 62, (1R,3aS,3bS,5aR,6R,7S,9aR,9bS,11aR)-4,4-difluoro-1-[(2R)-6-{2-fluoro-4-[(trifluoromethyl)oxy]phenyl}-6-hydroxyhexan-2-yl]-9a,11a-dimethylhexadecahydro-1H-cyclopenta[1,2-a]phenanthrene-6,7-diol] gave an IC50 of 0.728 µM. `COc1ncc(F)cc1C(O)CCC[C@@H](C)[C@H]1CC[C@H]2[C@H]3[C@H](CC[C@]12C)[C@@]1(C)CC[C@H](O)[C@H](O)[C@@H]1CC3(F)F` (stereo partly drawn) [Compound 151, (1R,3aS,3bS,5aR,6R,7S,9aR,9bS,11aR)-4,4-difluoro-1-[(2R)-6-(5-fluoro-2-methoxypyridin-3-yl)-6-hydroxyhexan-2-yl]-9a,11a-dimethylhexadecahydro-1H-cyclopenta[1,2-a]phenanthrene-6,7-diol] showed an IC50 of 0.18 µM. Work on `COc1ccnc(F)c1[C@@H](O)CCC[C@@H](C)[C@H]1CC[C@H]2[C@H]3[C@H](CC[C@]12C)[C@@]1(C)CC[C@H](O)[C@H](O)[C@@H]1CC3(F)F` (single isomer, unassigned) [Compound 229] yielded an IC50 of 0.049 µM. For `C[C@H](CCCC(O)c1cccc2cn[nH]c12)[C@H]1CC[C@H]2C3=C(F)C[C@H]4[C@@H](O)[C@@H](O)CC[C@]4(C)[C@H]3CC[C@]12C` (stereo partly drawn) [Compound 270, (1R,3aR,5aR,6R,7S,9aR,9bR,11aR)-4-fluoro-1-[(2R)-6-hydroxy-6-(1H-indazol-7-yl)hexan-2-yl]-9a,11a-dimethyl-2,3,3a,5,5a,6,7,8,9,9a,9b,10,11,11a-tetradecahydro-1H-cyclopenta[1,2-a]phenanthrene-6,7-diol], the IC50 was 0.259 µM. Compound `COc1nc(F)cc(F)c1[C@H](O)CCC[C@@H](C)[C@H]1CC[C@H]2[C@H]3[C@H](CC[C@]12C)[C@@]1(C)CC[C@H](O)[C@H](O)[C@@H]1CC3(F)F` (single isomer, unassigned) [Compound 256] has an IC50 of 0.099 µM. Compound `COc1c(C(O)CCC[C@@H](C)[C@H]2CC[C@H]3[C@H]4[C@H](CC[C@]23C)[C@@]2(C)CC[C@H](O)[C@H](O)[C@@H]2CC4(F)F)ccc[n+]1[O-]` (stereo partly drawn) [Compound 267, 3-[(5R)-5-[(1R,3aS,3bS,5aR,6R,7S,9aR,9bS,11aR)-4,4-difluoro-6,7-dihydroxy-9a,11a-dimethylhexadecahydro-1H-cyclopenta[1,2-a]phenanthren-1-yl]-1-hydroxyhexyl]-2-methoxypyridine-1-oxide] has an IC50 of 0.424 µM. Work on `COc1ncc(F)cc1[C@@H](O)CCC[C@@H](C)[C@H]1CC[C@H]2[C@H]3[C@H](CC[C@]12C)[C@@]1(C)CC[C@H](O)[C@H](O)[C@@H]1CC3(F)F` (single isomer, unassigned) [Compound 228] yielded an IC50 of 1.42 µM. For `C[C@H](CCCC(O)c1[nH]ncc1F)[C@H]1CC[C@H]2[C@H]3[C@H](CC[C@]12C)[C@@]1(C)CC[C@H](O)[C@H](O)[C@@H]1CC3(F)F` (stereo partly drawn) [Compound 237, (1R,3aS,3bS,5aR,6R,7S,9aR,9bS,11aR)-4,4-difluoro-1-[(2R)-6-(4-fluoro-2H-pyrazol-3-yl)-6-hydroxyhexan-2-yl]-9a,11a-dimethylhexadecahydro-1H-cyclopenta[1,2-a]phenanthrene-6,7-diol], the IC50 was 0.726 µM.

Same assay, conditions: Huh-7/SRE-luc cells, sterol-deficient medium, 16 hours, 0.01-10 µM
`C[C@H](CCC[C@@H](O)c1cc2ccccc2o1)[C@H]1CC[C@H]2[C@H]3[C@H](CC[C@]12C)[C@@]1(C)CC[C@H](O)[C@H](O)[C@@H]1CC3(F)F` (stereo in doubt) [Compound 317, (1R,3aS,3bS,5aR,6R,7S,9aR,9bS,11aR)-1-[(2R,6R)-6-(1-benzofuran-2-yl)-6-hydroxyhexan-2-yl]-4,4-difluoro-9a,11a-dimethylhexadecahydro-1H-cyclopenta[1,2-a]phenanthrene-6,7-diol] showed an IC50 of 0.155 µM. `COc1ccc(F)c(C(O)CCC[C@@H](C)[C@H]2CC[C@H]3[C@H]4[C@H](CC[C@]23C)[C@@]2(C)CC[C@H](O)[C@H](O)[C@@H]2CC4(F)F)c1` (single isomer, unassigned) [Compound 167, (1R,3aS,3bS,5aR,6R,7S,9aR,9bS,11aR)-4,4-difluoro-1-[(2R,6R)-6-(2-fluoro-5-methoxyphenyl)-6-hydroxyhexan-2-yl]-9a,11a-dimethylhexadecahydro-1H-cyclopenta[1,2-a]phenanthrene-6,7-diol or (1R,3aS,3bS,5aR,5aR,6R,7S,9aR,9bS,11aR) -4,4-difluoro-1-[(2R,6S)-6-(2-fluoro-5-methoxyphenyl)-6-hydroxyhexan-2-yl]-9a,11a-dimethylhexadecahydro-1H-cyclopenta[1,2-a]phenanthrene-6,7-diol] was tested, and the IC50 was 0.88 µM. Compound `C[C@H](CCN(C)C(=O)c1ccccc1F)[C@H]1CC[C@H]2[C@@H]3CC[C@@]4(C)[C@@H](O)[C@@H](O)CC[C@]4(C)[C@H]3CC[C@]12C` [Compound 15B, 2-fluoro-N-[(3R)-3-[(1R,3aS,3bS,5aR,6R,7S,9aR,9bS,11aR)-6,7-dihydroxy-5a,9a,11a-trimethylhexadecahydro-1H-cyclopenta[1,2-a]phenanthren-1-yl]butyl]-N-methylbenzamide] has an IC50 of 0.32 µM. `C[C@H](CCCC(O)c1ccc2c(c1)OC(F)(F)O2)[C@H]1CC[C@H]2[C@H]3[C@H](CC[C@]12C)[C@@]1(C)CC[C@H](O)[C@H](O)[C@@H]1CC3(F)F` (single isomer, unassigned) [Compound 259, (1R,3aS,3bS,5aR,6R,7S,9aR,9bS,11aR)-1-[(2R,6R)-6-(2,2-difluorobenzo[d][1,3]dioxol-5-yl)-6-hydroxyhexan-2-yl]-4,4-difluoro-9a,11a-dimethylhexadecahydro-1H-cyclopenta[1,2-a]phenanthrene-6,7-diol or (1R,3aS,3bS,5aR,6R,7S,9aR,9bS,11aR)-1-[(2R,6S)-6-(2,2-difluorobenzo[d][1,3]dioxol-5-yl)-6-hydroxyhexan-2-yl]-4,4-difluoro-9a,11a-dimethylhexadecahydro-1H-cyclopenta[1,2-a]phenanthrene-6,7-diol] was tested, and the IC50 was 0.249 µM.
